Where a name gives a salt, the structure may show the parent alone. ± gives the standard deviation of the averaged measurements.
Test system: SW872
Assay: relative viability vs DMSO control (72 h) (fraction); higher = more viable cells
Method in brief: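 Sarcoma cell lines were seeded in 384-well plates at densities chosen for 80–90% confluence, then 24 h later given 2.5 µl of serially diluted compound drawn from source plates spanning 10 mM to 0.0002 mM. They were held 72 h at 37 °C, 5% CO2, with 0.1% DMSO vehicle and a 5 µM positive control included. Relative viability was read with ATPLite as percent growth and averaged over up to triplicate wells. Rescaling placed full at 1 and none at 0.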

Row | Structure (SMILES) | relative viability (0.00017 µM) | relative viability (0.00051 µM) | relative viability (0.00152 µM) | relative viability (0.00457 µM) | relative viability (0.01372 µM) | relative viability (0.04115 µM) | relative viability (0.1235 µM) | relative viability (0.3704 µM) | relative viability (1.111 µM) | relative viability (3.333 µM) | relative viability (10 µM)
1 | CNC(=O)c1cc(Oc2ccc(NC(=O)Nc3ccc(Cl)c(C(F)(F)F)c3)c(F)c2)ccn1 [Regorafenib] | 1.11 ± 0.07 | 1.12 ± 0.039 | 1.12 ± 0.034 | 1.14 ± 0.025 | 1.14 ± 0.017 | 1.119 ± 0.011 | 1.11 ± 0.013 | 1.07 ± 0.061 | 0.96 ± 0.027 | 0.824 ± 0.058 | 0.662 ± 0.027
2 | Cc1ccc(NC(=O)c2ccc(CN3CCN(C)CC3)cc2)cc1Nc1nc(-c2cccnc2)cs1 [Masitinib] | 1.03 ± 0.044 | 1.06 ± 0.028 | 1.04 ± 0.029 | 1.03 ± 0.041 | 1.04 ± 0.038 | 1.06 ± 0.03 | 1.006 ± 0.006 | 0.979 ± 0.021 | 0.798 ± 0.015 | 0.519 ± 0.0078 | 0.127 ± 0.012
3 | CNC(=O)c1ccc(-c2cnc3ncc(Cc4ccc5ncccc5c4)n3n2)cc1F [Capmatinib] | 1.04 ± 0.041 | 1.03 ± 0.026 | 1.04 ± 0.048 | 1.03 ± 0.025 | 1.05 ± 0.049 | 1.05 ± 0.022 | 1.03 ± 0.043 | 1.06 ± 0.029 | 0.987 ± 0.024 | 1.02 ± 0.012 | 1 ± 0.019
4 | CCCS(=O)(=O)Nc1ccc(F)c(C(=O)c2c[nH]c3ncc(-c4ccc(Cl)cc4)cc23)c1F [Vemurafenib] | 1.05 ± 0.096 | 1.07 ± 0.099 | 1.08 ± 0.074 | 1.07 ± 0.067 | 1.07 ± 0.08 | 1.02 ± 0.033 | 0.863 ± 0.059 | 0.706 ± 0.063 | 0.642 ± 0.058 | 0.528 ± 0.034 | 0.342 ± 0.015
5 | Cc1ccc(F)c(NC(=O)Nc2ccc(-c3cccc4[nH]nc(N)c34)cc2)c1 [Linifanib] | 1.07 ± 0.042 | 1.06 ± 0.048 | 1.07 ± 0.028 | 1.02 ± 0.027 | 1.012 ± 0.0025 | 1.01 ± 0.015 | 1.01 ± 0.053 | 0.991 ± 0.022 | 1.02 ± 0.033 | 1.05 ± 0.049 | 1.03 ± 0.076
6 | CC(C)N1CCN(Cc2cnc(-c3cc(-c4cccc5[nH]ccc45)cc4[nH]ncc34)o2)CC1 [Nemiralisib] | 0.975 ± 0.035 | 0.982 ± 0.036 | 0.945 ± 0.043 | 0.945 ± 0.018 | 0.916 ± 0.033 | 0.949 ± 0.042 | 0.952 ± 0.018 | 0.896 ± 0.014 | 0.819 ± 0.032 | 0.622 ± 0.043 | 0.448 ± 0.017
7 | COCc1c(-c2cc3cc(C)cc(OC)c3s2)c2c(N)ncnn2c1CN1CCNC(=O)C1 [Rogaratinib] | 1.08 ± 0.043 | 1.07 ± 0.012 | 1.06 ± 0.045 | 1.03 ± 0.013 | 1.003 ± 0.0078 | 1.03 ± 0.011 | 1.03 ± 0.026 | 0.992 ± 0.028 | 0.952 ± 0.02 | 0.815 ± 0.051 | 0.513 ± 0.0093
8 | Cc1cc(Nc2ncnc3ccc(NC4=NC(C)(C)CO4)cc23)ccc1Oc1ccn2ncnc2c1 [Tucatinib] | 1.07 ± 0.017 | 1.08 ± 0.04 | 1.08 ± 0.016 | 1.09 ± 0.037 | 1.07 ± 0.051 | 1.08 ± 0.011 | 1.08 ± 0.017 | 1.04 ± 0.035 | 1.06 ± 0.04 | 1.03 ± 0.045 | 0.994 ± 0.038
9 | O=C(Nc1cnn2ccc(N3CCC[C@@H]3c3cc(F)ccc3F)nc12)N1CC[C@H](O)C1 [Larotrectinib] | 1.09 ± 0.022 | 1.12 ± 0.052 | 1.09 ± 0.072 | 1.08 ± 0.049 | 1.05 ± 0.11 | 0.99 ± 0.076 | 1.06 ± 0.095 | 1.06 ± 0.078 | 1.03 ± 0.065 | 1.03 ± 0.056 | 0.986 ± 0.044
10 | CN1CCC(COc2cnc(-c3cccc(Cn4nc(-c5cccc(C#N)c5)ccc4=O)c3)nc2)CC1 [Tepotinib] | 1.057 ± 0.008 | 1.07 ± 0.02 | 1.05 ± 0.037 | 1.04 ± 0.022 | 1.03 ± 0.038 | 1.01 ± 0.022 | 1.04 ± 0.016 | 1.02 ± 0.043 | 0.999 ± 0.019 | 0.972 ± 0.039 | 0.918 ± 0.033
11 | C[C@@H]1CCN(C(=O)CC#N)C[C@@H]1N(C)c1ncnc2[nH]ccc12 [Tofacitinib] | 1.12 ± 0.03 | 1.08 ± 0.035 | 1.1 ± 0.028 | 1.09 ± 0.056 | 1.08 ± 0.032 | 1.04 ± 0.081 | 1.03 ± 0.056 | 1.02 ± 0.063 | 0.946 ± 0.068 | 0.887 ± 0.095 | 0.747 ± 0.064
12 | N#CC[C@H](C1CCCC1)n1cc(-c2ncnc3[nH]ccc23)cn1 [Ruxolitinib] | 1.02 ± 0.032 | 1.048 ± 0.0078 | 1.052 ± 0.009 | 1.01 ± 0.014 | 0.9983 ± 0.0075 | 0.998 ± 0.038 | 0.974 ± 0.046 | 0.954 ± 0.059 | 0.914 ± 0.075 | 0.886 ± 0.041 | 0.729 ± 0.024
13 | C=CC(=O)N1CCC[C@@H](n2nc(-c3ccc(Oc4ccccc4)cc3)c3c(N)ncnc32)C1 [Ibrutinib] | 1.06 ± 0.016 | 1.06 ± 0.017 | 1.06 ± 0.064 | 1.01 ± 0.022 | 1.01 ± 0.042 | 0.976 ± 0.037 | 0.98 ± 0.081 | 0.923 ± 0.024 | 0.9099 ± 0.0036 | 0.84 ± 0.049 | 0.583 ± 0.027
14 | COc1c(OCCCN2CCOCC2)ccc2c1N=C(NC(=O)c1cnc(N)nc1)N1CCN=C21 [Copanlisib] | 1.07 ± 0.03 | 1.02 ± 0.049 | 1.02 ± 0.064 | 0.817 ± 0.059 | 0.689 ± 0.037 | 0.599 ± 0.08 | 0.425 ± 0.033 | 0.284 ± 0.0047 | 0.193 ± 0.013 | 0.16 ± 0.006 | 0.149 ± 0.015
15 | COc1cccc2c1C(=O)c1c(O)c3c(c(O)c1C2=O)C[C@@](O)(C(=O)CO)C[C@@H]3O[C@H]1C[C@H](N)[C@H](O)[C@H](C)O1 [Doxorubicin Hydrochloride] | 1.04 ± 0.021 | 1.05 ± 0.046 | 1.04 ± 0.031 | 1.08 ± 0.036 | 1.06 ± 0.018 | 0.961 ± 0.024 | 0.527 ± 0.051 | 0.203 ± 0.011 | 0.172 ± 0.014 | 0.213 ± 0.005 | 0.175 ± 0.0045

Reference: the supplement of paper PMC10883282
